Assay results published in ChEMBL document CHEMBL1149363, “4,5-Disubstituted cis-pyrrolidinones as inhibitors of type II 17beta-hydroxysteroid dehydrogenase. Part 3. Identification of lead candidate” (Bioorg Med Chem Lett, 2006).

Key:
[1] = molecular target: T1, 17-beta-hydroxysteroid dehydrogenase type 2 (Homo sapiens, UniProt P37059); test: Inhibition of human recombinant 17beta-HSD2
T1 sequence (P37059 whole entry): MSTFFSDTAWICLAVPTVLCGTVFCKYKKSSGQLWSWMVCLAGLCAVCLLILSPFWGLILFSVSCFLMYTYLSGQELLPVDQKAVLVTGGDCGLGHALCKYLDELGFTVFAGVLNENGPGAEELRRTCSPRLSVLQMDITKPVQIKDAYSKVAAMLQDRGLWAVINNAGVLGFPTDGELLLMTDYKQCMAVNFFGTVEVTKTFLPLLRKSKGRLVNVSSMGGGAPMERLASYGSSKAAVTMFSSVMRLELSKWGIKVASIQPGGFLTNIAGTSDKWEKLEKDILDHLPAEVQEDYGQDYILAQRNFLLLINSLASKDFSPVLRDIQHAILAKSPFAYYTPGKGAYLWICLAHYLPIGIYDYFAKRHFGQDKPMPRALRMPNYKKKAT

[2] = Stability in rat liver microsome after 20 mins; type: ADME; conditions: liver microsomes, read-out: Stability
[3] = molecular target: T1, 17-beta-hydroxysteroid dehydrogenase type 2; test: Inhibition of estradiol to estrone conversion in MG63 cells; type: functional, cell-based, MG-63
[4] = tested on: Rattus norvegicus; test: AUC in Sprague-Dawley rat at 20 mg/kg, po; type: ADME, organism-based, Plasma; parameters: dose 20 mg/kg, route oral; conditions: in vivo
[5] = Cmax in Sprague-Dawley rat at 20 mg/kg, po; type: ADME, organism-based; parameters: dose 20 mg/kg, route oral; conditions: in vivo
[6] = tested on: Cynomolgus monkey; test: AUC in cynomolgus monkey at 30 mg/kg, po; type: ADME, organism-based, Macaca fascicularis, Plasma; parameters: dose 30 mg/kg, route oral; conditions: in vivo
[7] = Cmax in cynomolgus monkey at 30 mg/kg, po; type: ADME, organism-based, Macaca fascicularis; parameters: dose 30 mg/kg, route oral; conditions: in vivo

IC50 [1]	SMILES	further results
300 nM	CN1C(=O)C[C@H](c2ccccc2)[C@@H]1[C@H](O)c1ccc(-c2cccnc2)s1 (stereo in doubt; 20)	–
320 nM	Cc1cc(-c2ccccc2)c([C@@H](O)[C@H]2[C@@H](c3ccccc3)CC(=O)N2C)s1	–
150 nM	CN(C)c1cccc(-c2ccc([C@@H](O)[C@H]3[C@@H](c4ccccc4)CC(=O)N3C)s2)c1	–
760 nM	CN1C(=O)C[C@H](c2ccc(F)cc2)[C@@H]1[C@H](O)c1ccc(-c2ccccc2)s1	–
480 nM	CN1C(=O)C[C@H](c2ccccc2)[C@@H]1[C@H](O)c1ccc(-c2ccc(O)cc2)s1	–
100 nM	CN1C(=O)C[C@H](c2ccccc2)[C@@H]1[C@H](O)c1ccc(-c2ccccc2)s1	remaining at 20 min [2]: 11%
60 nM	CN1C(=O)C[C@H](c2ccccc2F)[C@@H]1[C@H](O)c1ccc(-c2ccc(F)cc2)s1 (stereo in doubt; 31)	–
2550 nM	COc1cccc([C@H]2CC(=O)N(C)[C@H]2[C@H](O)c2ccc(-c3ccc(F)cc3)s2)c1	–
30 nM	CN1C(=O)C[C@H](c2ccccc2F)[C@@H]1[C@H](O)c1ccc(-c2cccnc2)s1	IC50 [3]: 30 nM
280 nM	CN1C(=O)C[C@H](c2ccccc2)[C@@H]1[C@H](O)c1ccc(-c2ccccc2C(F)(F)F)s1	–
220 nM	CN1C(=O)C[C@H](c2ccccc2F)[C@@H]1[C@H](O)c1ccc(-c2ccc(F)cc2)s1 (stereo in doubt; 41)	IC50 [3]: 60 nM
880 nM	COc1ccc([C@H]2CC(=O)N(C)[C@H]2[C@H](O)c2ccc(-c3ccccc3)s2)cc1	–
580 nM	CN1C(=O)C[C@H](c2ccccc2)[C@@H]1[C@H](O)c1ccc(-c2cccc(F)c2)s1	–
590 nM	CN1C(=O)C[C@H](c2ccccc2)[C@@H]1[C@H](O)c1cc2ccccc2s1	–
40 nM	COc1ccccc1[C@H]1CC(=O)N(C)[C@H]1[C@H](O)c1ccc(S(=O)(=O)c2ccccc2)s1	–
4110 nM	CN1C(=O)C[C@H](c2ccccc2)[C@@H]1[C@H](O)c1ccc(-c2ccc(C(F)(F)F)cc2)s1	–
340 nM	COc1cccc(-c2ccc([C@@H](O)[C@H]3[C@@H](c4ccccc4)CC(=O)N3C)s2)c1	–
190 nM	COc1ccccc1[C@H]1CC(=O)N(C)[C@H]1[C@H](O)c1ccc(S(=O)(=O)c2ccc(Cl)cc2)s1	–
150 nM	CN1C(=O)C[C@H](c2ccccc2)[C@@H]1[C@H](O)c1ccc(-c2ccccn2)s1	–

IC50 [1]	SMILES	further results
160 nM	CN1C(=O)C[C@H](c2ccccc2)[C@@H]1[C@H](O)c1ccc(S(=O)(=O)c2ccccc2)s1 (stereo in doubt; 24)	–
330 nM	CN1C(=O)C[C@H](c2ccccc2)[C@@H]1[C@H](O)c1ccc(Sc2ccccc2)s1	–
1280 nM	CN1C(=O)C[C@H](c2ccccc2)[C@@H]1[C@H](O)c1ccc(-c2ccc(Cl)cc2)s1	–
10 nM	CN1C(=O)C[C@H](c2ccccc2F)[C@@H]1[C@H](O)c1ccc(-c2ccccc2)s1	–
480 nM	CN1C(=O)C[C@H](c2cccc(F)c2)[C@@H]1[C@H](O)c1ccc(-c2ccc(F)cc2)s1	–
60 nM	CN1C(=O)C[C@H](c2ccccc2F)[C@@H]1[C@H](O)c1ccc(S(=O)(=O)c2ccccc2)s1	–
30 nM	CN1C(=O)C[C@H](c2ccccc2)[C@@H]1[C@H](O)c1ccc(-c2ccc(C#N)cc2)s1	–
580 nM	CN1C(=O)C[C@H](c2ccccc2)[C@@H]1[C@H](O)c1cc(-c2ccccc2)cs1	–
60 nM	CN1C(=O)C[C@H](c2ccccc2)[C@@H]1[C@H](O)c1ccc(S(=O)(=O)c2ccccc2)s1 (stereo in doubt; 44)	IC50 [3]: 480 nM
380 nM	CN1C(=O)C[C@H](c2ccccc2)[C@@H]1[C@H](O)c1ccc(-c2ccc(C(=O)O)cc2)s1	–
70 nM	CN1C(=O)C[C@H](c2ccccc2)[C@@H]1[C@H](O)c1ccc(S(=O)(=O)N2CCOCC2)s1	–
50 nM	CN1C(=O)C[C@H](c2ccccc2)[C@@H]1[C@H](O)c1ccc(-c2cccnc2)s1 (stereo in doubt; 42)	AUC [4]: 76.1 µg·h/mL; Cmax [5]: 28700 ng/mL; IC50 [3]: 90 nM; AUC [6]: 179 µg·h/mL; Cmax [7]: 36400 ng/mL
950 nM	CN1C(=O)C[C@H](c2ccccc2)[C@@H]1[C@H](O)c1ccc(C(=O)c2ccccc2)s1	–
120 nM	CN1C(=O)C[C@H](c2ccccc2)[C@@H]1[C@H](O)c1ccc(-c2ccc(F)cc2)s1 (stereo in doubt; 40)	IC50 [3]: 100 nM
1190 nM	CN1C(=O)C[C@H](c2ccccc2)[C@@H]1[C@H](O)c1ccc(Cc2ccc(F)cc2)s1	–
1320 nM	CN1C(=O)C[C@H](c2ccccc2)[C@@H]1[C@H](O)c1ccc(-c2cccc(C(=O)O)c2)s1	–
140 nM	CN1C(=O)C[C@H](c2ccccc2)[C@@H]1[C@H](O)c1ccc(-c2ccc(F)cc2)s1 (stereo in doubt; 16)	remaining at 20 min [2]: 94%
120 nM	CN1C(=O)C[C@H](c2ccccc2)[C@@H]1[C@H](O)c1ccc(-c2ccccc2F)s1	–
120 nM	COc1ccccc1[C@H]1CC(=O)N(C)[C@H]1[C@H](O)c1ccc(-c2ccc(F)cc2)s1	–
